The values that follow come from PubChem BioAssay AID330 (DTP/NCI, 2004).

The subject of the assay is P388 leukemia ip, CD2F1 mice, survival T/C. The assay can be described thus: NCI In Vivo Anticancer Drug Screen. Data for tumor model P388 Leukemia (intraperitoneal) in CD2F1 (CDF1) mice. Conditions: endpoint: median survival time, higher = longer survival. In short, it runs like this: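 Mice carrying the transplanted tumor received test compound or vehicle. Survival was recorded in each group, and the value is the treated-group measurement divided by that of the vehicle-treated control group.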

[1] abbreviates: dose: 50.0 mg/kg/injection, schedule: Q01DX005 (ip), vehicle: Klucel (hydroxypropylcellulose) (HPC).
[2] abbreviates: dose: 100.0 mg/kg/injection, schedule: Q01DX005 (ip), vehicle: Klucel (hydroxypropylcellulose) (HPC).
[3] abbreviates: dose: 200.0 mg/kg/injection, schedule: Q01DX005 (ip), vehicle: Klucel (hydroxypropylcellulose) (HPC).
[4] abbreviates: dose: 12.5 mg/kg/injection, schedule: Q04DX003 (ip), vehicle: saline.
[5] abbreviates: dose: 25.0 mg/kg/injection, schedule: Q04DX003 (ip), vehicle: saline.
[6] abbreviates: dose: 12.5 mg/kg/injection, schedule: Q01DX009 (ip), vehicle: saline with Tween-80.
Where [7] appears, read: dose: 25.0 mg/kg/injection, schedule: Q01DX009 (ip), vehicle: saline with Tween-80.
Setting [8] is: dose: 100.0 mg/kg/injection, schedule: Q01DX001 (ip), vehicle: saline with Tween-80.
Setting [9] is: dose: 200.0 mg/kg/injection, schedule: Q01DX001 (ip), vehicle: saline with Tween-80.
[10] abbreviates: dose: 400.0 mg/kg/injection, schedule: Q01DX001 (ip), vehicle: saline with Tween-80.

Structures are written as SMILES. Several values for one entry are separate records, joined by “and”; a condition that tells them apart may be missing. Equal values may be shown once. Toxic doses and inconclusive results are not listed.

For `C1CCC2C[N-]CCC2C1.C1CCC2C[N-]CCC2C1.C1CCC2C[N-]CCC2C1.C1CCC2C[N-]CCC2C1.[Cl][Rh][Cl]` (stereo not given), the T/C by setting is: (dose: 0.06 mg/kg/injection, schedule: Q03HX024 (ip), vehicle: saline) 105 % of control; (dose: 0.13 mg/kg/injection, schedule: Q03HX008 (ip), vehicle: saline) 113 % of control; (dose: 0.13 mg/kg/injection, schedule: Q03HX016 (ip), vehicle: saline) 105 % of control; (dose: 0.13 mg/kg/injection, schedule: Q03HX024 (ip), vehicle: saline) 100 % of control; (dose: 0.25 mg/kg/injection, schedule: Q01DX009 (ip), vehicle: saline) 107 % of control; (dose: 0.25 mg/kg/injection, schedule: Q03HX008 (ip), vehicle: saline) 118 % of control. The T/C (dose: 0.25 mg/kg/injection, schedule: Q03HX016 (ip), vehicle: saline) was 110 % of control; the T/C (dose: 0.25 mg/kg/injection, schedule: Q03HX024 (ip), vehicle: saline) is 108 % of control; the T/C (dose: 0.5 mg/kg/injection, schedule: Q01DX009 (ip), vehicle: saline) is 110 % of control; the T/C (dose: 0.5 mg/kg/injection, schedule: Q03HX008 (ip), vehicle: saline) was 123 % of control; the T/C (dose: 0.5 mg/kg/injection, schedule: Q03HX016 (ip), vehicle: saline) is 116 % of control; the T/C (dose: 0.5 mg/kg/injection, schedule: Q03HX024 (ip), vehicle: saline) was 117 % of control. The T/C by setting is: (dose: 0.5 mg/kg/injection, schedule: Q04DX003 (ip), vehicle: saline) 111 % of control; (dose: 1.0 mg/kg/injection, schedule: Q01DX001 (ip), vehicle: saline) 118 % of control; (dose: 1.0 mg/kg/injection, schedule: Q03HX008 (ip), vehicle: saline) 121 % of control; (dose: 1.0 mg/kg/injection, schedule: Q03HX016 (ip), vehicle: saline) 115 % of control; (dose: 1.0 mg/kg/injection, schedule: Q04DX003 (ip), vehicle: saline) 113 % of control; (dose: 1.0 mg/kg/injection, schedule: Q08DX002 (ip), vehicle: saline) 114 % of control. The T/C runs as follows: (dose: 1.3 mg/kg/injection, schedule: Q01DX009 (ip), vehicle: water) 111 % of control; (dose: 2.0 mg/kg/injection, schedule: Q01DX001 (ip), vehicle: saline) 119 % of control; (dose: 2.0 mg/kg/injection, schedule: Q03HX008 (ip), vehicle: saline) 119 % of control; (dose: 2.0 mg/kg/injection, schedule: Q04DX003 (ip), vehicle: saline) 115 % of control; (dose: 2.0 mg/kg/injection, schedule: Q08DX002 (ip), vehicle: saline) 121 % of control; (dose: 3.0 mg/kg/injection, schedule: Q01DX009 (ip), vehicle: water) 111 % of control. Besides, the T/C by setting is: (dose: 3.13 mg/kg/injection, schedule: Q04DX003 (ip), vehicle: saline with Tween-80) 150 % of control; (dose: 4.0 mg/kg/injection, schedule: Q01DX001 (ip), vehicle: saline) 118 % of control; (dose: 4.0 mg/kg/injection, schedule: Q03HX016 (ip), vehicle: saline) 110 % of control; (dose: 4.0 mg/kg/injection, schedule: Q04DX003 (ip), vehicle: saline) 124 % of control; (dose: 4.0 mg/kg/injection, schedule: Q08DX002 (ip), vehicle: saline) 123 % of control; (dose: 6.25 mg/kg/injection, schedule: Q04DX003 (ip), vehicle: saline with Tween-80) 150 % of control. Also, the T/C (dose: 8.0 mg/kg/injection, schedule: Q08DX002 (ip), vehicle: saline) is 123 % of control and the T/C (dose: 12.5 mg/kg/injection, schedule: Q04DX003 (ip), vehicle: saline with Tween-80) is 90 % of control.

On to `Cc1ccc2c(c1)sc1nc(C)cc(=O)n12`, for which the T/C is 106 % of control (dose: 10.0 mg/kg/injection, schedule: Q04DX002 (ip), vehicle: Klucel (hydroxypropylcellulose) (HPC)); 97 % of control (dose: 20.0 mg/kg/injection, schedule: Q04DX002 (ip), vehicle: Klucel (hydroxypropylcellulose) (HPC)); 95 % of control (dose: 40.0 mg/kg/injection, schedule: Q04DX002 (ip), vehicle: Klucel (hydroxypropylcellulose) (HPC)).

Consider `Cc1nc2c(cnn2C)c(=O)n1-c1cccc(Cl)c1`, for which the T/C by setting is: under setting [1], 98 % of control; under setting [2], 100 % of control; under setting [3], 87 % of control.

For `COc1c2c(cc3c1C(C1OC(=O)c4c1c([N+](=O)[O-])c(OC)c(OC)c4[N+](=O)[O-])N(C)CC3)OCO2` (stereo not given), the T/C is 101 % of control (dose: 25.0 mg/kg/injection, schedule: Q01DX005 (ip), vehicle: Klucel (hydroxypropylcellulose) (HPC)); 92 % of control under setting [1]; 93 % of control under setting [2]; 91 % of control under setting [3].

For `OCCOCCN1CCN(CCCN2c3ccccc3Sc3ccc(C(F)(F)F)cc32)CC1`, the T/C was 114 % of control under setting [4] and 117 % of control under setting [5].

Take `CC(C)N(C(C)C)P1(=S)N(C(C)(C)C)N=NN1C(C)(C)C`: the T/C under setting [1] was 91 % of control, the T/C under setting [2] was 101 % of control and the T/C under setting [3] is 91 % of control.

With `CCC(C)N(CCCOC(=O)c1ccc(N)cc1)C(C)CC` (stereo not given), the T/C is 109 % of control under setting [6]; 100 % of control under setting [4]; 100 % of control under setting [7]; 91 % of control under setting [5]; 104 % of control (dose: 50.0 mg/kg/injection, schedule: Q01DX009 (ip), vehicle: saline with Tween-80); 91 % of control (dose: 50.0 mg/kg/injection, schedule: Q04DX003 (ip), vehicle: saline).

For `O=S1(=O)C2CCCCC2C2CCCCC21` (stereo not given), the T/C under setting [8] is 108 % of control, the T/C under setting [9] is 106 % of control and the T/C under setting [10] is 113 % of control.

As to `N#CC(=C1N=c2ccccc2=N1)c1[nH]c(O)c2ccccc12`, the T/C by setting is: (dose: 6.25 mg/kg/injection, schedule: Q01DX009 (ip), vehicle: saline with Tween-80) 93 % of control; under setting [6], 91 % of control; under setting [7], 94 % of control.

Consider `CCN(C(=S)NCCCOC)c1ccc(C)cc1`, for which the T/C was 97 % of control (dose: 50.0 mg/kg/injection, schedule: Q01DX009 (ip), vehicle: Klucel (hydroxypropylcellulose) (HPC)); 86 % of control (dose: 100.0 mg/kg/injection, schedule: Q01DX009 (ip), vehicle: Klucel (hydroxypropylcellulose) (HPC)); 87 % of control (dose: 200.0 mg/kg/injection, schedule: Q01DX009 (ip), vehicle: Klucel (hydroxypropylcellulose) (HPC)).

Regarding `NNC(=O)CCc1c[nH]c2ccccc12`, the T/C is, setting by setting: (dose: 50.0 mg/kg/injection, schedule: Q01DX001 (ip), vehicle: saline with Tween-80) 100 % of control; under setting [8], 96 % of control; under setting [9], 111 % of control; under setting [10], 111 % of control.

On to `C1CCC2OCN3CCCCC3CC2C1` (stereo not given), for which the T/C is 107 % of control and 98 % of control (dose: 12.5 mg/kg/injection, schedule: Q01DX005 (ip), vehicle: saline); 99 % of control and 98 % of control (dose: 25.0 mg/kg/injection, schedule: Q01DX005 (ip), vehicle: saline); 100 % of control and 111 % of control and 113 % of control (dose: 50.0 mg/kg/injection, schedule: Q01DX005 (ip), vehicle: saline); 114 % of control and 118 % of control and 121 % of control (dose: 100.0 mg/kg/injection, schedule: Q01DX005 (ip), vehicle: saline).
